According to patent US11541028B2, “Peptide pharmaceuticals for treatment of NASH and other disorders” (Mederis Diabetes LLC, priority 2018, dated 2023):

How the values were obtained:
human GLP-1 receptor = target: T1, human GLP-1 receptor (Homo sapiens, UniProt P43220); assay: DiscoveRx LeadHunter cellular assay, cAMP stimulation, GLP-1 receptor in CHO cells; format: cell-based; conditions: human GLP-1 receptor in CHO cells (DiscoveRx); read-out: EC50 cAMP GLP-1 R
T1 construct: host or cells: CHO cells
Description: (§1) A further series of cellular assays was carried out with standard cellular assays (DiscoveRx, LeadHunter assays) using readout of cAMP stimulation or arrestin activation. Compounds were weighed precisely in an amount of about 1 mg and shipped to DiscoveRx for dilution and assay.

DIO C57BL/6J mice = assay: Activity in diet-induced obese (DIO) mice; format: in vivo
Description: Fifty diet-induced obese (DIO) C57BL/6J male mice (JAX Labs) were received at 6 wks of age. The mice were ear notched for identification and housed individually in positively ventilated polycarbonate cages with HEPA-filtered air at a density of […]. The animal room was lit entirely with artificial fluorescent lighting, with a controlled 12 hr light/dark cycle. The normal temperature and relative humidity ranges in the animal rooms were 22±4° C. and 50±15%, respectively. Filtered tap water, acidified to a pH of 2.8-3.1, and a high-fat diet (Research Diets D12492, 60 kcal %) were provided ad libitum.
Following a 2 week acclimation, the 50 mice were randomized into groups (n=10): Group 1: treated with vehicle; Group 2: low-dose EU-A994; Group 3: high-dose […]; Group 4: low-dose EU-A1024; and Group 5: high-dose EU-A1024. Mice were dosed subcutaneously on days 1 (at 0 and 7 hr), 3, 6, 9, 12, 15, 18, 21 and 24. Body weight and cage-side observations were recorded daily. Food and water intake was recorded weekly. Mice underwent NMR measurements for determination of whole-body fat and lean composition on days 1 (pre-dose) and 26. On day 26, mice were fasted overnight for an oral glucose tolerance test. Next day, the first blood sample was collected via tail nick (t=0). Mice were then administered a bolus of 1.0 g/kg glucose. Blood samples were obtained via tail nick at 0, 15, 30, 60, 90 and 120 min after glucose dosing, and plasma glucose was immediately determined using a glucometer.
Mice were sacrificed on day 28. Terminal blood was processed to serum/plasma, and aliquots were sent for analysis of glucose, insulin and lipid profile. Body composition was determined by NMR.

human glucagon receptor = target: T2, human glucagon receptor (Homo sapiens, UniProt P47871); assay: DiscoveRx LeadHunter cellular assay, cAMP stimulation, glucagon receptor in CHO cells; format: cell-based
T2 construct: host or cells: CHO cells
Description: as §1

db/db mice = assay: Glucose-lowering activity in db/db mice; format: in vivo; conditions: for body weight changes versus vehicle / food consumption versus liraglutide: db/db mice; for food consumption versus liraglutide: day 2
Description: The 60 female db/db B6BKS (D) Leprdb/J (strain 000697) mice for this study were about 8-9 weeks old at arrival (Jackson Laboratory, Bar Harbor, Me.). […] One group of 8 female mice served as the vehicle control and received the vehicle, 0.2% BSA in saline, pH 7.4. One additional group of 8 female mice received the positive-control compound, liraglutide, at a dose level of 50 nmoles/kg. The test compounds, vehicle and positive-control compound were subcutaneously injected at a dose volume of 6 mL/kg on day 1 at about 0, 7 and 24 hours.
Clinical observations were conducted at receipt, prior to randomization, and daily from days 1 to 5. Body weights were measured and recorded at receipt, prior to randomization, and daily from days 1 to 5. Food consumption was measured and recorded daily from days 1 to 5. Blood samples for glucose analysis were collected pre-study (day −3) and at 0, 1, 2, 4, 8, 10, 24, 48, 72 and 96 hours following the first dose on day 1. At study termination all animals were euthanized, and the carcasses were discarded without further evaluation.

DIO-NASH mice = assay: Biopsy-proven DIO-NASH mouse model; format: in vivo; conditions: for hepatocyte ballooning score (0-2), pre-study to post-study biopsy: animals that initially exhibited ballooning
Description: All mice entering the study were stratified based on liver pre-biopsy at week −3. Only mice with a fibrosis score ≥1 and a steatosis score ≥2 were included in the study. The stratified mice were randomized into treatment groups based on liver collagen type 1 alpha 1 (collal) quantification at week −3.
Body weight was measured daily for the entire study period. Food intake was measured daily for the first 14 days, and then weekly until study end. EchoMRI whole-body scanning was performed in week 11. At study end were measured plasma levels of alanine transaminase (ALT), aspartate transaminase (AST), γ-glutamyltransferase (GGT), triglycerides (TG) and total cholesterol (TC), liver levels of TG, TC, col1α1 and galectin-3, the expression levels of a wide variety of mRNAs in the liver, and the liver weight, and were performed liver biopsy/necropsy to assess steatosis, inflammation, ballooning and fibrosis of the liver.
For blood and plasma assays, blood samples were collected in heparinized tubes and plasma was separated and stored at −80° C. until analysis. ALT, AST, GGT, TG and TC levels were measured using commercial kits (Roche Diagnostics, Germany) and the Cobas™ C-501 autoanalyzer according to the manufacturer's instructions.
For liver tissue assays, the triglycerides and cholesterol content in the liver was measured using the Triglyceride and Cholesterol reagents (Cat. No. 22-045-795 and Cat. No. 22-045-780, respectively, Roche Diagnostics, Germany) and the Cobas™ C-501 autoanalyzer. Homogenized liver tissue was heated to 80-100° C. twice and centrifuged in a microcentrifuge, and the triglycerides and cholesterol content in the resulting supernatant was measured.
The body composition of the mice was assessed by an EchoMRI 3-1 body composition analyzer (EchoMRI, U.S.). Unanesthetised mice were placed in a plastic tube inside the MRI scanner for about 80 seconds. The body composition was expressed as fat tissue mass, fat-free tissue mass (lean tissue mass) and water.
For liver biopsy, mice were anesthetized by inhalation of isoflurane (2-3%). A small abdominal incision was made in the midline, and the left lateral lobe of the liver was exposed. A cone-shaped wedge of liver tissue (about 50 mg) was excised from the distal portion of the lobe and fixated in 10% neutral-buffered formalin (4% formaldehyde) for histology. The cut surface of the liver was instantly electro-coagulated using bipolar coagulation (ERBE VIO 100 electrosurgical unit). After pre-biopsy, the liver was returned to the abdominal cavity, the abdominal wall was sutured, and the skin was closed with staples. For post-operative recovery, the mice were administered carprofen (5 mg/kg) subcutaneously on the day of operation and on days 1 and 2 post-operation.
For histological staining, in brief, slides with paraffin-embedded sections were de-paraffinated in xylene and then rehydrated in a series of graded ethanol. For hematoxylin and eosin (H&E) staining, the slides were incubated in Mayer's Hematoxylin (Dako), washed in tap water, stained in Eosin Y solution (Sigma-Aldrich), hydrated, mounted with Pertex and then allowed to dry before scanning. For picrosirius red (PSR) staining, the slides were incubated in Weigert's iron hematoxylin (Sigma-Aldrich), washed in tap water, stained in picrosirius red (Sigma-Aldrich) and then washed twice in acidified water. Excess water was removed by shaking the slides, and the slides were dehydrated in three changes of 99% ethanol, cleared in xylene, mounted with Pertex and then allowed to dry before scanning.
For collagen type 1 alpha 1 (collal) and galectin-3 (GAL3) immunohistochemical (IHC) staining, after antigen retrieval and blocking of endogenous peroxidase activity, slides were incubated with the primary antibody (Cat. No. 1310-01 from Southern Biotech for col1α1, or Cat. No. 125402 from Biolegend for galectin-3). […]

[1] = days 1 (pre-dose) and 26 (FIG. 11)
[2] = sc on days 1 (0 and 7 hr), 3, 6, 9, 12, 15, 18, 21 and 24
[3] = 12 weeks QD (SP-1373 5/10 nmole/kg SC; semaglutide 10 nmole/kg SC; elafibranor 78 mole/kg PO)
[4] = 12 weeks QD (SP-1373 5/10 nmole/kg SC; semaglutide 10 nmole/kg SC; elafibranor PO)

T1 sequence (P43220 24-463): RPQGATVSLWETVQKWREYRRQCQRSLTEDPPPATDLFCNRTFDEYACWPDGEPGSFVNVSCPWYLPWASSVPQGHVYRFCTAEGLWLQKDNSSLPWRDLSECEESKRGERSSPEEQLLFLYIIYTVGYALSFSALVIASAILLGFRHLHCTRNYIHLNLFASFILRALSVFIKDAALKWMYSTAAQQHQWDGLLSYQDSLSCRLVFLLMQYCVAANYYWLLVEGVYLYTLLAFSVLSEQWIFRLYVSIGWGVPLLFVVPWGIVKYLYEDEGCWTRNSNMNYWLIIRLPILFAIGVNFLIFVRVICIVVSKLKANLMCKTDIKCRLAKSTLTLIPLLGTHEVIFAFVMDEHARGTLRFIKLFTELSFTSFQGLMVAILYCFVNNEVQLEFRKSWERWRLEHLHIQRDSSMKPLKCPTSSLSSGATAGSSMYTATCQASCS
T2 sequence (P47871 26-477): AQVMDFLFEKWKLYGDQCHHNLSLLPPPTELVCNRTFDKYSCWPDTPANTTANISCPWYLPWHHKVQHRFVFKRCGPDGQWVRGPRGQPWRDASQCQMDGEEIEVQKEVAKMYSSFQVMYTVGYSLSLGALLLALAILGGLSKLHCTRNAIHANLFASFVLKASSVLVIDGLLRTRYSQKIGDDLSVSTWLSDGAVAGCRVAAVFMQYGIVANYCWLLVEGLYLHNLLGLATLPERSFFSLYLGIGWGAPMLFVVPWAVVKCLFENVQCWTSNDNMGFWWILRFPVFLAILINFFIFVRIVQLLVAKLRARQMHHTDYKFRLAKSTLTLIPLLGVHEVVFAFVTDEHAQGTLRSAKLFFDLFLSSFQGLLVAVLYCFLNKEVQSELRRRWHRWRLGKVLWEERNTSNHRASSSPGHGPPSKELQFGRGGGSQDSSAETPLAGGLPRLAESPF

In the case of CCCCCCCCCCCCCCO[C@@H]1O[C@H](CO[C@H]2O[C@H](C(=O)NCCCC[C@H](NC(=O)[C@@H](NC(=O)[C@H](Cc3ccccc3)NC(=O)[C@H](CCC(=O)O)NC(=O)[C@@H]3CCCCNC(=O)CC[C@H](NC(=O)[C@H](CC(=O)O)NC(=O)[C@H](CC(C)C)NC(=O)[C@H](Cc4ccc(O)cc4)NC(=O)[C@H](CCCCN)NC(=O)[C@H](CO)NC(=O)[C@H](Cc4ccc(O)cc4)NC(=O)[C@H](CC(=O)O)NC(=O)[C@H](CO)NC(=O)[C@@H](NC(=O)[C@H](Cc4ccccc4)NC(=O)[C@@H](NC(=O)CNC(=O)[C@H](CCC(N)=O)NC(=O)C(C)(C)NC(=O)[C@@H](N)Cc4c[nH]cn4)[C@@H](C)O)[C@@H](C)O)C(=O)N[C@@H](CCC(N)=O)C(=O)N[C@@H](C)C(=O)N[C@@H](C)C(=O)N3)[C@@H](C)CC)C(=O)N[C@@H](Cc3c[nH]c4ccccc34)C(=O)N[C@@H](CC(C)C)C(=O)N[C@@H](CC(C)C)C(=O)N[C@@H](CCC(N)=O)C(=O)N[C@H](C(N)=O)[C@@H](C)O)[C@H](O)[C@H](O)[C@H]2O)[C@@H](O)[C@H](O)[C@H]1O [EU-A1024], the EC50 (human GLP-1 receptor) is reported as 0.005 nM, the “fat mass (NMR)” value (DIO C57BL/6J mice; [1]) is reported as “reduced fat mass” and the “lean mass (NMR)” value (DIO C57BL/6J mice; [1]) is reported as “little effect on lean mass”. For the same compound, the basal insulin secretion (DIO C57BL/6J mice; [2]) was “reduced basal insulin secretion”, the “glucose excursion in the oral glucose tolerance test (OGTT)” value (DIO C57BL/6J mice; [2]) was “reduced glucose excursion” and the glucose-dependent insulin secretion (DIO C57BL/6J mice; [2]) was “increased glucose-dependent insulin secretion”. The weight gain (DIO C57BL/6J mice; sc on days 1 (0 and 7 hr), 3, 6, 9, 12, 15, 18, 21 and 24 (FIG. 10)) was “reduced weight gain” and the EC50 (human glucagon receptor) was 0.035 nM.

For CCCCCCCCCCCCCCCCCCO[C@@H]1O[C@H](CO[C@H]2O[C@H](C(=O)NCCCC[C@H](NC(=O)[C@@H](NC(=O)[C@H](Cc3ccccc3)NC(=O)[C@H](CCC(=O)O)NC(=O)[C@@H]3CCCCNC(=O)CC[C@H](NC(=O)[C@H](CC(=O)O)NC(=O)[C@H](CC(C)C)NC(=O)[C@H](Cc4ccc(O)cc4)NC(=O)[C@H](CCCCN)NC(=O)[C@H](CO)NC(=O)[C@H](Cc4ccc(O)cc4)NC(=O)[C@H](CC(=O)O)NC(=O)[C@H](CO)NC(=O)[C@@H](NC(=O)[C@H](Cc4ccccc4)NC(=O)[C@@H](NC(=O)CNC(=O)[C@H](CCC(N)=O)NC(=O)C(C)(C)NC(=O)[C@@H](N)Cc4c[nH]cn4)[C@@H](C)O)[C@@H](C)O)C(=O)N[C@@H](CCC(N)=O)C(=O)N[C@@H](C)C(=O)N[C@@H](C)C(=O)N3)[C@@H](C)CC)C(=O)N[C@@H](Cc3c[nH]c4ccccc34)C(=O)N[C@@H](CC(C)C)C(=O)N[C@@H](CC(C)C)C(=O)N[C@@H](CCC(N)=O)C(=O)N[C@H](C(N)=O)[C@@H](C)O)[C@H](O)[C@H](O)[C@H]2O)[C@@H](O)[C@H](O)[C@H]1O [EU-A1026], the EC50 (human GLP-1 receptor) was 0.034 nM, the “body weight changes versus vehicle” value (db/db mice; high-dose (300 nmoles/kg) sc at 0, 7 and 24 hours, days 2 and 3) was “Significant body weight changes versus vehicle” and the “food consumption versus liraglutide” value (db/db mice; high-dose (300 nmoles/kg)) was “significantly different from liraglutide”. The “body weight changes versus vehicle” value (db/db mice; low-dose (100 nmoles/kg) sc at 0, 7 and 24 hours, days 3 and 4) was “Significant body weight changes versus vehicle”, the “food consumption versus liraglutide” value (db/db mice; low-dose (100 nmoles/kg)) was “significantly different from liraglutide” and the “db/db Mice-Mean Blood Glucose (mg/dL) 0 hr” value (db/db mice; dose 300 nmole/kg sc, 0 hr) was 531 mg/dL. The “db/db Mice-Mean Blood Glucose (mg/dL) 10 hr” value (db/db mice; dose 300 nmole/kg sc, 10 hr) was 399 mg/dL, the “db/db Mice-Mean Blood Glucose (mg/dL) 24 hr” value (db/db mice; dose 300 nmole/kg sc, 24 hr) was 438 mg/dL and the “db/db Mice-Mean Blood Glucose (mg/dL) 48 hr” value (db/db mice; dose 300 nmole/kg sc, 48 hr) was 505 mg/dL. For the same compound, the EC50 (human glucagon receptor) was 0.486 nM.

CSc1ccc(C(=O)/C=C/c2cc(C)c(OC(C)(C)C(=O)O)c(C)c2)cc1 [elafibranor] was tested, and the “liver fibrosis score (0-4), picrosirius red” value (DIO-NASH mice; 12 weeks QD (SP-1373 5/10 nmole/kg SC; elafibranor PO)) was “reduced liver fibrosis in the majority of animals”, the “liver triglycerides (TG) level” value (DIO-NASH mice; [3]) was “little or no effect” and the liver weight (DIO-NASH mice; [3]) was “increased liver weight”. For the same compound, the “total liver collagen type 1 alpha 1 staining (measure of liver fibrosis)” value (DIO-NASH mice; [3]) was “modest effect”, the “total liver galectin-3 staining (biomarker for liver inflammation and fibrosis)” value (DIO-NASH mice; [3]) was “essentially no effect” and the body weight (DIO-NASH mice; [4]) was “less body weight decrease”. The “liver total cholesterol (TC) level” value (DIO-NASH mice; [4]) was “little or no effect” and the “hepatocyte ballooning score (0-2), pre-study to post-study biopsy” value (DIO-NASH mice; [4]) was “showed no ballooning”.

For semaglutide, the body weight (DIO-NASH mice; [4]) was “less body weight decrease”, the “hepatocyte ballooning score (0-2), pre-study to post-study biopsy” value (DIO-NASH mice; [4]) was “showed no ballooning” and the “liver steatosis, histology with hematoxylin and eosin stain” value (DIO-NASH mice; semaglutide 10 nmole/kg SC QD 12 weeks) was “moderate decrease in hepatosteatosis”.
